The text below walks through data of PMC7915858, “Complementary Effects of Carbamylated and Citrullinated LL37 in Autoimmunity and Inflammation in Systemic Lupus Erythematosus” (International Journal of Molecular Sciences, 2021).

One assay deals with SLE CD4 T-cells. Put plainly: T-cell proliferation (BrdU incorporation, flow cytometry). It is filed as cell-based, human. The note with it: for SLE patients responding by T-cell proliferation: BrdU, positive if SI > 3, carb-LL37 8 of 25, native LL37 17 of 31, cit-LL37 16 of 31 SLE patients. As to the method:
PBMCs were purified from EDTA-treated blood, on Ficoll-Hypaque (Pharmacia Fine Chemicals, Uppsala, Sweden) and were incubated (10^5 cells/well) in 96-well-flat-bottom-microplates (BD) in T-cell-medium (RPMI 1640, 10% heat-inactivated human serum, HS, Gibco), 2 mM L-glutamine, 10 U/mL penicillin and 100 μg/mL streptomycin), with/without peptides. We performed assays on fresh cells, within 1-to-3 h from collection or on PBMCs frozen in 90% FCS−10% DMSO, whose viability we assessed by Trypan blue exclusion, with an inverted microscope. Recovery of live cells was between 65 and 85% of the frozen number. At day 3 and 5, BrdU was added (1 μg/mL). BrdU-incorporation was detected by APC-labeled anti-BrdU antibody (BD Pharmingen), after surface staining for CD4, CD3, CD8 and analyzed by flow cytometry (Gallios, BeckmanCoulter, Brea, CA, USA). Internal control for T-cell viability and proliferation was PHA treatment (2 μg/mL). SI for proliferation was calculated by dividing percent of BrdU-staining in the presence of each peptide antigen (LL37, carb-LL37, cit-LL37, LL37 reverse, REV; cit-LL37 reverse, cit-REV; carb-LL37 reverse, carb-REV) by the percent obtained in the untreated cells. SI for proliferation was considered positive when the values of percent of BrdU positive cells was three times higher than the values obtained with the control peptides (SI > 3). Assays were repeated twice with each patient. In rare cases in which background proliferation (culture with REV, cit-REV, carb-REV), exceeded antigen-specific proliferation (that is response to LL37, carb-LL37, cit-LL37), the assay was repeated three times. Concomitant phenotype analysis of LL37-responder T-cells included staining for CD3, CD4, CD8, CXCR5 (CXCR5 was assessed on BrdU/CD3/CD4-positive cells).
(§1) Differences between mean values were assessed by Wilcoxon’s matched-pair signed rank test, to compare responses to antigens and control antigens in the same donor. We used Mann-Whitney test for comparison of T-cell and antibody responses between groups of patients and HD. Statistical significance was set at p < 0.05. Correlation analyses were performed by Spearman’s rank-correlation test. Data were analyzed by GraphPad Prism 7.0 or SPSS software.

A further assay has as its system pDCs. Put plainly: IFN-α production by purified pDCs stimulated with peptide-DNA complexes. It is filed as cell-based, human. The note with it: 24 h, ELISA; for IFN-α response of pDCs to peptide alone: peptide without DNA. As to the method:
Buffy-coats from HD were from Centro Trasfusionale, Policlinico Umberto I, Rome, IT. After separation of mononuclear cells by Ficoll centrifugation, pDCs were purified as described, by using the Diamond Plasmacytoid Dendritic Cell Isolation Kit (Miltenyi Biotec, Bergisch Gladbach, Germany) to obtain 99% purity. Purified pDCs were seeded into 96-well round-bottom plates at 3.5/5 × 10^4 cells per well in 200 μL RPMI 1640 (GIBCO), supplemented with 10% fetal calf serum (FCS), 1% Hepes and 1% sodium pyruvate. LL37, cit-LL37 and carb-LL37 were premixed with total human genomic DNA (extracted from PBMC of HD, see below) (15 μg/mL). After 15 min incubation at room temperature the mix was added to the pDC cultures. IFN-α in supernatants was measured by ELISA (MabTech, Stockholm, Sweden), after 24 h (according to the manufacturer’s instructions).
Human DNA was extracted from PBMCs, as reported and was fragmented by sonication. Five milligrams of DNA in a volume of 300 μL were fragmented using the Sonics Vibra Cell sonicator (Newtown, CT, USA), with the following settings: 2, 4 and 10 sonication cycles (30 s on, 30 s off, in ice) to obtain DNA fragment sizes between 100 and 1000 bp. The resulting size distribution was controlled by 2% agarose gel electrophoresis.

Assay [1] concerns native LL37-P1-specific T-cells (HLA-DRB5*0101 tetramer). Briefly: Peptide-MHC-tetramer staining of T-cells after PBMC stimulation. The class given is cell-based, human. The conditions noted are these: 6 days stimulation, CD38hi CD4 T-cells; for Control (Ctr-B5) tetramer positive T-cells: Ctr-B5 tetr, lower panels Figure S6; for LL37-specific T-cells (LL37-B5 tetramer positive): LL37-B5 tetr, upper panels Figure S6. As to the method: Peptide-MHC-tetramers were from ImmunAware (Denmark). Staining was performed for 40 min with 1microL of tetramer suspension at 37 °C, followed by staining for CD4 (4 °C, 20 min), without washing. After incubation with anti-CD4 antibody, cells were washed, resuspended in PBS and kept at 4 °C. Before flow cytometry-acquisition, cells were labeled with PercP-conjugated 7-AAD to exclude dead cells. The peptide-MHC-tetramers used in this study are: the HLA-DR15-P1: tetramer of HLA-DRB1*1501 LLGDFFRKSKEKIGK (corresponding to the first aa at the NH2-term of the mature native LL37), (PE-conjugated) and the control peptide-MHC-tetramer called DR15-ctr: tetramer of HLA-DRB1*1501 […]1-169-185 (PE-conjugated). The other couple of peptide-MHC-tetramers used were HLA-DRB5*0101 loaded with the same LL37 epitope as above and the control tetramer HLA-DRB5*0101 loaded with the control epitope PVSKMRMATPLLMQA (CLIP-derived).

A further assay deals with SLE serum antibody. Briefly: ELISA for antibody reactivity of SLE sera to carb-/cit-/native LL37 and carb-REV, and its correlation with SLEDAI. The conditions noted are these: for Antibody reactivity in SLE patients with renal damage versus without renal damage: N=6 with and N=44 without renal damage, Mann-Whitney, Figure S3 panel a P 0.047. The class given is binding, human. As to the method:
Anti-native LL37/cit-LL37/carb-LL37 antibodies were measured as described. Briefly, 96-well flat-bottom plates (Non-Binding surface polystyrene, Corning, Glendale, AZ USA) were coated with 2 μg/mL of native LL37, cit-LL37 or carb-LL37 in carbonate buffer (0.1 M NaHCHO3, pH 9) for 2 h (or overnight) and washed four times with PBS plus 0.1% Tween-20. This washing buffer was used for washing at all steps. The blocking buffer containing 2% bovine serum albumin (BSA, Sigma) in PBS was used for at least 1 h (or overnight) to saturate unspecific binding sites. After washing, sera were diluted at various concentrations (usually at 1:100 or 1:200) in PBS + 2% BSA followed by 1 h incubation with a horseradish peroxidase–conjugated (HRP) goat anti-human IgG (Sigma-Aldrich), diluted 1:10,000 in PBS. The color was developed for 5 min with 3,3′,5,5′-tetramethylbenzidine (TMB) substrate (Sigma-Aldrich). The reaction was stopped by adding 50 μL of 2 N H2SO4 and absorbance determined at 450 nm with a reference wavelength of 540 nm. Responses were considered positive when the OD measured exceeded the mean OD values measured in healthy donors’ plasma plus two standard deviations (+2SD), calculated on the HD group values, as described.
as §1

Turning to “L*LGDFFRK*SK*EK*IGKEFK*RIVQRIK*DFLRNLVPRTES [carb-LL37]”, in the assay on SLE CD4 T-cells (BrdU incorporation, stimulation index, Wilcoxon's test), the “Proliferation of SLE CD4 T-cells” value is reported as “significant proliferation of SLE CD4 T-cells, although less efficiently than cit-LL37”. Further, the “BrdU-positive CD3+CD4+ T-cells” value with SLE CD4 T-cells (BrdU staining, representative zebra plot, Figure S5a) is on record as 18.3%. For the same substance, in the assay with SLE CD4 T-cells, the “SLE patients responding by T-cell proliferation” value is recorded as 32%. In the assay with SLE CD4 T-cells (SI, Spearman, Figure 3b), the “Correlation of T-cell responses to carb-LL37 and native LL37” value is on record as “correlated moderately”. For the same substance, in the assay on SLE CD4 T-cells (SI, Spearman, Figure 4a,b), the “Correlation of T-cell proliferation with SLEDAI or autoantibodies to LL37” value was “moderate but significant correlation”. In the assay with SLE CD4 T-cells (SLE cohort analyzed), the “Antigen efficiency compared to cit-LL37” value is reported as “less efficient antigen compared to cit-LL37”. Further, the “IFN-α response of pDCs to peptide alone” value with pDCs was “no IFN-α response”. Also, in assay [1], the “Control (Ctr-B5) tetramer positive T-cells” value is 0.39% and the “LL37-specific T-cells (LL37-B5 tetramer positive)” value worked out at 6.57%. Also, in the assay with SLE serum antibody (ELISA, 2 μg/mL coated antigen, sera 1:100 or 1:200, OD 450 nm, positive: OD > mean HD + 2SD, carb-LL37 28 of 45, carb-REV 8 of 47 SLE patients), the “SLE patients showing an antibody response to the antigen” value is listed as 62%. Also, the “SLE serum antibody reactivity (OD) compared to healthy donors” value in the assay with SLE serum antibody (ELISA, OD, Mann-Whitney's test) is “significant SLE serum antibody reactivity”. The “Antibody reactivity in SLE patients with renal damage versus without renal damage” value in the assay on SLE serum antibody (ELISA) is given as “significantly higher anti-carb-LL37 antibody reactivity”. For the same substance, the “Correlation of antibody reactivity with SLEDAI” value in the assay on SLE serum antibody (Spearman) is on record as “A significant correlation was appreciated”. Moreover, the “Correlation of anti-carb-LL37 with anti-cit-LL37 antibody reactivity” value in the assay on SLE serum antibody (Spearman, Figure 2c) is given as “correlated significantly with anti-cit-LL37 antibody reactivity”. Also, the “Correlation of anti-carb-LL37 with anti-native LL37 antibody reactivity” value with SLE serum antibody (Spearman, Figure 2d left) was “less but still in a significant manner”.
With “LLGDFFR(cit)KSKEKIGKEFKR(cit)IVQR(cit)IKDFLR(cit)NLVPR(cit)TES [cit-LL37, LL37 citrullinated at all five arginine sites]”, the “SLE patients responding by T-cell proliferation” value with SLE CD4 T-cells is given as 52%. In addition, the “IFN-I/IFN-α production by pDCs, peptide-DNA complex” value in the assay with pDCs (peptide premixed with human DNA (15 μg/mL)) is listed as “did not stimulate any IFN-I production by pDCs”. The “IFN-α response of pDCs to peptide alone” value in the assay on pDCs is “no IFN-α response”. Also, in assay [1], the “Control (Ctr-B5) tetramer positive T-cells” value was found to be 0.54% and the “LL37-specific T-cells (LL37-B5 tetramer positive)” value stood at 2.48%. Moreover, the “Antibody reactivity in SLE patients with renal damage versus without renal damage” value in the assay on SLE serum antibody (ELISA) was “non-significant anti-cit- and anti-native-LL37 antibody increase”. In addition, the “Correlation of antibody reactivity with SLEDAI” value in the assay with SLE serum antibody (Spearman) is “both responses also correlated with SLEDAI”.
